Data taken from ChEMBL document CHEMBL3045033, “Synthesis of new potential anticancer agents based on 4-thiazolidinone and oleanane scaffolds” (Med Chem Res, 2012).
Where “and” joins values, the source holds several entries; their conditions need not be identical. Equal values may be shown once.

Key:
Type in all cases: functional
[1] = test system: OVCAR-5; test: Cytotoxicity against Homo sapiens (human) OVCAR5 cells after 48 hr by SRB assay
[2] = test system: OVCAR-3; test: Cytotoxicity against Homo sapiens (human) OVCAR3 cells after 48 hr by SRB assay
[3] = test system: HL-60(TB); test: Cytotoxicity against Homo sapiens (human) HL-60(TB) cells at 10^-4 to 10^-8 M after 48 hr by SRB assay; conditions: HL-60, 48 h, read-out: pTGI (converted)
[4] = test system: DU-145; test: Cytotoxicity against Homo sapiens (human) DU145 cells at 10^-4 to 10^-8 M after 48 hr by SRB assay; conditions: DU-145, 48 h, read-out: pTGI (converted)
[5] = test system: UACC-257; test: Cytotoxicity against Homo sapiens (human) UACC257 cells after 48 hr by SRB assay
[6] = test system: HT-29; test: Cytotoxicity against Homo sapiens (human) HT-29 cells at 10^-4 to 10^-8 M after 48 hr by SRB assay; conditions: HT-29, 48 h, read-out: pTGI (converted)
[7] = test system: OVCAR-3; test: Cytotoxicity against Homo sapiens (human) OVCAR3 cells at 10^-4 to 10^-8 M after 48 hr by SRB assay; conditions: OVCAR-3, 48 h, read-out: pTGI (converted)
[8] = test system: RPMI-8226; test: Cytotoxicity against Homo sapiens (human) RPMI8226 cells at 10^-4 to 10^-8 M after 48 hr by SRB assay; conditions: RPMI-8226, 48 h, read-out: pTGI (converted)
[9] = test system: HCC 2998; test: Cytotoxicity against Homo sapiens (human) HCC2998 cells at 10^-4 to 10^-8 M after 48 hr by SRB assay; conditions: HCC 2998, 48 h, read-out: pTGI (converted)
[10] = test system: A498; test: Cytotoxicity against Homo sapiens (human) A498 cells at 10^-4 to 10^-8 M after 48 hr by SRB assay; conditions: A498, 48 h, read-out: pTGI (converted)
[11] = test system: OVCAR-5; test: Cytotoxicity against Homo sapiens (human) OVCAR5 cells at 10^-4 to 10^-8 M after 48 hr by SRB assay; conditions: OVCAR-5, 48 h, read-out: pTGI (converted)
[12] = test system: COLO 205; test: Cytotoxicity against Homo sapiens (human) COLO205 cells after 48 hr by SRB assay
[13] = test system: SK-OV-3; test: Cytotoxicity against Homo sapiens (human) SKOV3 cells after 48 hr by SRB assay
[14] = test system: UACC-257; test: Cytotoxicity against Homo sapiens (human) UACC257 cells at 10^-4 to 10^-8 M after 48 hr by SRB assay; conditions: UACC-257, 48 h, read-out: pTGI (converted)
[15] = test system: SNB-75; test: Cytotoxicity against Homo sapiens (human) SNB75 cells after 48 hr by SRB assay
[16] = test system: PC-3; test: Cytotoxicity against Homo sapiens (human) PC3 cells at 10^-4 to 10^-8 M after 48 hr by SRB assay; conditions: PC-3, 48 h, read-out: pTGI (converted)
[17] = test system: DU-145; test: Cytotoxicity against Homo sapiens (human) DU145 cells after 48 hr by SRB assay
[18] = test system: ACHN; test: Cytotoxicity against Homo sapiens (human) ACHN cells after 48 hr by SRB assay
[19] = test system: 786-0; test: Cytotoxicity against Homo sapiens (human) 786-0 cells at 10^-4 to 10^-8 M after 48 hr by SRB assay; conditions: 786-0, 48 h, read-out: pTGI (converted)
[20] = test system: MOLT-4; test: Cytotoxicity against Homo sapiens (human) MOLT4 cells at 10^-4 to 10^-8 M after 48 hr by SRB assay; conditions: MOLT-4, 48 h, read-out: pTGI (converted)
[21] = test system: KM12; test: Cytotoxicity against Homo sapiens (human) KM12 cells at 10^-4 to 10^-8 M after 48 hr by SRB assay; conditions: KM12, 48 h, read-out: pTGI (converted)
[22] = test system: HOP-92; test: Cytotoxicity against Homo sapiens (human) HOP92 cells at 10^-4 to 10^-8 M after 48 hr by SRB assay; conditions: HOP-92, 48 h, read-out: pTGI (converted)
[23] = test system: SNB-19; test: Cytotoxicity against Homo sapiens (human) SNB19 cells at 10^-4 to 10^-8 M after 48 hr by SRB assay; conditions: SNB-19, 48 h, read-out: pTGI (converted)
[24] = test system: SR; test: Cytotoxicity against Homo sapiens (human) SR cells after 48 hr by SRB assay
[25] = test system: NCI-H226; test: Cytotoxicity against Homo sapiens (human) NCI-H226 cells after 48 hr by SRB assay
[26] = test system: SK-MEL-2; test: Cytotoxicity against Homo sapiens (human) SK-MEL-2 cells at 10^-4 to 10^-8 M after 48 hr by SRB assay; conditions: SK-MEL-2, 48 h, read-out: pTGI (converted)
[27] = test system: SNB-19; test: Cytotoxicity against Homo sapiens (human) SNB19 cells after 48 hr by SRB assay
[28] = test system: T47D; test: Cytotoxicity against Homo sapiens (human) T47D cells at 10^-4 to 10^-8 M after 48 hr by SRB assay; conditions: read-out: pTGI (converted)
[29] = test system: COLO 205; test: Cytotoxicity against Homo sapiens (human) COLO205 cells at 10^-4 to 10^-8 M after 48 hr by SRB assay; conditions: COLO 205, 48 h, read-out: pTGI (converted)
[30] = test system: UACC-62; test: Cytotoxicity against Homo sapiens (human) UACC62 cells at 10^-4 to 10^-8 M after 48 hr by SRB assay; conditions: UACC-62, 48 h, read-out: pTGI (converted)
[31] = test system: MDA-MB-231; test: Cytotoxicity against Homo sapiens (human) MDA-MB-231 cells at 10^-4 to 10^-8 M after 48 hr by SRB assay; conditions: MDA-MB-231, 48 h, read-out: pTGI (converted)
[32] = test system: HT-29; test: Cytotoxicity against Homo sapiens (human) HT-29 cells after 48 hr by SRB assay
[33] = test system: SNB-75; test: Cytotoxicity against Homo sapiens (human) SNB75 cells at 10^-4 to 10^-8 M after 48 hr by SRB assay; conditions: SNB-75, 48 h, read-out: pTGI (converted)
[34] = test system: SK-MEL-28; test: Cytotoxicity against Homo sapiens (human) SK-MEL-28 cells at 10^-4 to 10^-8 M after 48 hr by SRB assay; conditions: SK-MEL-28, 48 h, read-out: pTGI (converted)
[35] = test system: U-251; test: Cytotoxicity against Homo sapiens (human) U251 cells at 10^-4 to 10^-8 M after 48 hr by SRB assay; conditions: U-251, 48 h, read-out: pTGI (converted)
[36] = test system: NCI-H226; test: Cytotoxicity against Homo sapiens (human) NCI-H226 cells at 10^-4 to 10^-8 M after 48 hr by SRB assay; conditions: NCI-H226, 48 h, read-out: pTGI (converted)
[37] = test system: SK-MEL-28; test: Cytotoxicity against Homo sapiens (human) SK-MEL-28 cells after 48 hr by SRB assay

Compound | TGI [3] | TGI [4] | TGI [6] | TGI [7] | TGI [8] | TGI [9] | TGI [10] | TGI [11] | GI50 ([12]; Homo sapiens, COLO 205, 48 h) | TGI [14] | TGI [16] | TGI [19] | TGI [20] | TGI [21] | TGI [22] | TGI [23] | TGI [26] | TGI [28] | TGI [29] | TGI [30] | also measured
COC(=O)[C@]12CCC(C)(C)C[C@H]1C1=CC[C@@H]3[C@@]4(C)CC/C(=N\O)C(C)(C)[C@@H]4CC[C@@]3(C)[C@]1(C)CC2 | > 100 µM | 42.7 µM | 79.4 µM | 35.5 µM | > 100 µM | 42.7 µM | 63.1 µM | 55 µM | 22.4 µM | > 100 µM | 44.7 µM | 34.7 µM | > 100 µM | > 100 µM | 39.8 µM | 69.2 µM | > 100 µM | 72.4 µM | 57.5 µM | 56.2 µM | GI50 ([1]; Homo sapiens, OVCAR-5, 48 h): 24.5 µM; GI50 ([2]; Homo sapiens, OVCAR-3, 48 h): 18.6 µM; GI50 ([5]; Homo sapiens, UACC-257, 48 h): 33.1 µM; GI50 ([13]; Homo sapiens, SK-OV-3, 48 h): 40.7 µM; GI50 ([15]; Homo sapiens, SNB-75, 48 h): 18.2 µM; GI50 ([17]; Homo sapiens, DU-145, 48 h): 20.4 µM; GI50 ([18]; Homo sapiens, ACHN, 48 h): 20.9 µM; GI50 ([24]; Homo sapiens, SR, 48 h): 26.9 µM; GI50 ([25]; Homo sapiens, NCI-H226, 48 h): 27.5 µM; GI50 ([27]; Homo sapiens, SNB-19, 48 h): 25.7 µM; TGI [31]: 40.7 µM; GI50 ([32]; Homo sapiens, HT-29, 48 h): 22.9 µM; TGI [33]: 38.9 µM; TGI [34]: 66.1 µM; TGI [35]: 33.9 µM; TGI [36]: 66.1 µM; GI50 ([37]; Homo sapiens, SK-MEL-28, 48 h): 24.5 µM
CC1(C)CC[C@@]23CC[C@]4(C)[C@@](OC2=O)([C@@H]3C1)[C@@H](Br)C[C@@H]1[C@@]2(C)CC/C(=N\O)C(C)(C)[C@@H]2CC[C@]14C | > 100 µM | > 100 µM | > 100 µM | 49 µM | > 100 µM | > 100 µM | > 100 µM | > 100 µM | 91.2 µM | > 100 µM | > 100 µM | > 100 µM | > 100 µM | > 100 µM | 46.8 µM | > 100 µM | > 100 µM | 74.1 µM | > 100 µM | > 100 µM | GI50 ([1]; Homo sapiens, OVCAR-5, 48 h): > 100 µM; GI50 ([2]; Homo sapiens, OVCAR-3, 48 h): 11.5 µM; GI50 ([5]; Homo sapiens, UACC-257, 48 h): 14.8 µM; GI50 ([13]; Homo sapiens, SK-OV-3, 48 h): 30.9 µM; GI50 ([15]; Homo sapiens, SNB-75, 48 h): 20.4 µM; GI50 ([17]; Homo sapiens, DU-145, 48 h): 14.1 µM; GI50 ([18]; Homo sapiens, ACHN, 48 h): 53.7 µM; GI50 ([24]; Homo sapiens, SR, 48 h): 2.14 µM; GI50 ([25]; Homo sapiens, NCI-H226, 48 h): 28.2 µM; GI50 ([27]; Homo sapiens, SNB-19, 48 h): 53.7 µM; TGI [31]: 47.9 µM; GI50 ([32]; Homo sapiens, HT-29, 48 h): 17.8 µM; TGI [33]: 60.3 µM; TGI [34]: > 100 µM; TGI [35]: > 100 µM; TGI [36]: > 100 µM; GI50 ([37]; Homo sapiens, SK-MEL-28, 48 h): 43.7 µM
COC(=O)[C@]12CCC(C)(C)C[C@H]1C1=CC[C@@H]3[C@@]4(C)CC/C(=N\OC(=O)/C=C5/SC(=O)NC5=O)C(C)(C)[C@@H]4CC[C@@]3(C)[C@]1(C)CC2 | 5.37 µM | 17 µM | 5.13 µM | 3.47 µM | 6.03 µM | 12.3 µM | 5.75 µM | 33.9 µM | 2.63 µM | 24.5 µM | 14.1 µM | 11.5 µM | 7.41 µM | 12.6 µM | 4.68 µM | 26.3 µM | 17.8 µM | 18.6 µM | 5.37 µM | 10.2 µM | GI50 [1]: 60.3 µM and 18.6 µM; GI50 [2]: 6.31 µM and 1.91 µM; GI50 [5]: 51.3 µM and 11.5 µM; GI50 [12]: 3.47 µM; GI50 [13]: 61.7 µM and 20 µM; GI50 [15]: 49 µM and 10.7 µM; GI50 [17]: 42.7 µM and 5.13 µM; GI50 [18]: 1.74 µM and 6.61 µM; GI50 [24]: 8.91 µM and 1.7 µM; GI50 [25]: ≥ 100 µM and 12.3 µM; GI50 [27]: 56.2 µM and 12.3 µM; TGI [31]: 7.59 µM; GI50 [32]: 15.8 µM and 2.24 µM; TGI [33]: 22.9 µM; TGI [34]: 3.8 µM; TGI [35]: 3.39 µM; TGI [36]: 30.9 µM; GI50 [37]: 7.08 µM and 2.04 µM
